What was measured:
[1] = tested on: allergic agglutinating autoantibodies; settings: in vivo, iv
rabbits = settings: rabbit, in vivo
Experimental: Besides, it is necessary to point out that the claimed polycomplex gel is characterized by the absence of allergenic properties. Considering the fact that nowadays, an obligatory stage of a new medicine study is the evaluation of the allergenicity thereof, the claimed polycomplex gel has passed a verification on the basis of the Arthus-Sakharov test. For this purpose, six rabbits of both sexes weighting from 2.0 to 2.5 kg were injected with thymogen under sterile conditions subcutaneously on one side of the back with the dose of 10 mg/kg in 1.0 ml of sodium chloride isotonic solution and 1 ml of hors serum subcutaneously into the back on the other side. The rabbits of the control group were injected, instead of thymogen, with 1 ml of sodium chloride isotonic solution. The injections of thymogen and of horse serum were repeated for 6 times with a 5-6 days' interval.

thymogen
Titer growth of allergic agglutinating autoantibodies [1]: not accompanied by any titer growth
Allergenicity (conclusion, standard methods) (rabbits): not allergenic

From patent US20170209417A1, “POLYCOMPLEX GEL FOR TREATING DISEASES OF INTESTINAL/DIGESTIVE TRACT” (priority 2014, published 2017)
